From patent US20240398781A1, “SPIROCYCLIC CYCLIC MODULATORS OF CHOLESTEROL BIOSYNTHESIS AND THEIR USE FOR PROMOTING REMYELINATION” (GENENTECH, INC., priority 2021, published 2024)

What was measured:
[1] = biological target: human emopamil binding protein and human 7-dehydrocholesterol reductase co-expressing cells (hEBP-DHCR7 membrane) (Homo sapiens (Human), UniProt Q15125); test: Radioligand filter binding assay on hEBP-DHCR7 membrane; details: [3H]-(S)-6-(2-Methyl-3-(6-(trifluoromethyl)pyridin-3-yl)propyl)-2-thia-6-azaspiro[3.4]octane 2,2-dioxide radioligand, HEK293 membrane co-expressing hEBP and hDHCR7
human emopamil binding protein and human 7-dehydrocholesterol reductase co-expressing cells (hEBP-DHCR7 membrane), sequence (Q15125 whole entry): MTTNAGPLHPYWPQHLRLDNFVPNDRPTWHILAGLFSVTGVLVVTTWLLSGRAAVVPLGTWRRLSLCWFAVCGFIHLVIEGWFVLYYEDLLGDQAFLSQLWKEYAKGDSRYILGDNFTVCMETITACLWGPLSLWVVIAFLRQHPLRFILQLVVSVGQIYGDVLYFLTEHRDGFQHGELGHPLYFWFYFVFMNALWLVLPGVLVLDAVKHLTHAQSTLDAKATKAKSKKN
Method: Membrane Preparation: human emopamil binding protein and human 7-dehydrocholesterol reductase co-expressing cells were generated by transient transfecting host human embryonic kidney (HEK) 293 cells with 2 DNA constructs containing each protein's coding sequence. Cells were suspension cultured at 37° C. with 5% CO2 in […] 293 Expression Medium (Thermofisher). Whole cell membrane was prepared by harvesting the cell pellet, adding cold membrane buffer (50 mM Tris, pH7.5, lx Roche COMPLETE EDTA-free protease inhibitor cocktail) 10 times volume of the cell pellets weight, lysing cell pellet on ice by using Dounce homogenizer, spinning at 200 g 4° C. for 15 min, collecting supernatant and spinning again at 25000 g 4° C. for 50 min, transferring pellet to Dounce homogenizer, re-suspending pellet by homogenizing in membrane buffer on ice to reach ˜25 mg/mL, then keeping whole cell membrane aliquots at −80° C.
Compounds were prepared in a 96-well U bottom plate using an Echo550 machine and 10 mM compound DMSO stock solution, followed by an 8-dose 5-fold serial dilutions protocol with final testing compound concentration ranging from 0.06 to 5000 nM, with DMSO back fill to 100 nL/well and n=2. […] The UniFilter-96 GF/B plates were pre-treated by adding 50 μl/well of 0.3% (v/v) PEI to UniFilter-96 GF/B plates. The plates were sealed and incubated at 4° C. for 3 hrs. Then, the plates were washed with ice-cold assay buffer 3 times. The radioligand binding assay was prepared by adding assay buffer diluted hEBP-DHCR7 membrane at 66.7 μg/ml×150 μl/well into the 96-well compound plate to reach 10 μg membrane per well. Then, the assay buffer diluted [3H]—(S)-6-(2-Methyl-3-(6-(trifluoromethyl)pyridin-3-yl)propyl)-2-thia-6-azaspiro[3.4] octane 2,2-dioxide was added at 25 nM×50 μl/well. Following this, the plate was centrifuged at 1000 rpm for 30 secs. The plate was then sealed and agitated at 600 rpm at 22° C. for 5 min, and then incubated at 22° C. for 3 hrs. The incubation was stopped by transferring the binding solution to the pre-treated UniFilter-96 GF/B plate, vacuum filtrated, and then washed four times with ice-cold assay buffer. Following this, the plates were dried at 37° C. for 45 min. The plates were then sealed at the bottom. 40 μl/well of scintillation cocktail was added to the plates. A MicroBeta2 microplate counter was then used to read the plate and analyze the data. For reference and test compounds, the results are expressed as % Inhibition, using the normalization equation: N=100−100×(U−C2)/(C1−C2), where U is the unknown value, C1 is the average of high controls, and C2 is the average value of low controls. The IC50 was determined by fitting percentage of inhibition as a function of compound concentrations with Hill equation using XLfit. Results are expressed as hEBP-DHCR7 Ki (uM) in Table 4. Ki was calculated as described above. The asterix (*) indicates an isolated isomer or isolated group of isomers, but that the stereochemistry has not been assigned.

[2] = test system: EBP (zymostenol accumulation in EpiSC-derived OPCs); test: GC/MS-based sterol profiling, zymostenol accumulation in OPCs; format: cell-based, mouse; details: Mus musculus, 24 h, EpiSC-derived OPCs, 24 hr treatment, 8 doses from 0.15 nM to 333 nM; read-out: Zymostenol GCMS EC50
Method: To assess effects of treatments on OPCs, all treatments were assayed in two or more independent platings of epiblast stem cell-derived OPCs ([…]-derived OPCs were obtained using in vitro differentiation protocols and culture conditions described previously (Najm et al, 2011, Nature Methods). OPCs were expanded and frozen down in aliquots. OPCs were thawed into growth conditions for at least one passage before use in further assays. Sterols were monitored using a modified Folch wash protocol (Hubler et al, 2018, Nature). EpiSC-derived OPCs were plated at 100,000 cells per well in PO- and laminin-coated 96-well plates in N2B27 media without growth factors. After 24 hours, cells were rinsed with saline and plates were frozen. Cholesterol-d7 standard was then added to each well before drying under nitrogen stream and derivatization with 55 μl of bis(trimethylsilyl) trifluoroacetamide. After derivatization, 2 μl were analyzed by gas chromatography/mass spectrometry using an Agilent 5973 Network Mass Selective Detector equipped with a 6890 gas chromatograph system and a HP-5MS capillary column (30 m×0.25 mm×0.25 mm). Samples were analyzed in full scan mode using electron impact ionization; ion fragment peaks were integrated to calculate sterol abundance, and quantitation was relative to cholesterol-d7. […] All standards were obtained from Avanti Polar Lipids unless otherwise indicated. Calibration curves were generated by injecting varying concentrations of sterol standards and maintaining a fixed amount of cholesterol-D7. For normalized zymostenol accumulation results, the total amount of zymostenol measured after drug treatment was divided by the total amount of zymostenol accumulated after 24 hr treatment with 100 nM positive control reference.

Cc1nc(C(F)(F)F)ccc1[C@H]1CC[C@@H](N2CCC3(C2)CS(=O)(=O)C3)CC1 [Compound 51B, 6-((1s,4s)-4-(2-methyl-6-(trifluoromethyl)pyridin-3-yl)cyclohexyl)-2-thia-6-azaspiro[3.4]octane 2,2-dioxide]
Ki [1]: 14 nM
EC50 [2]: 5.9 nM

O=S1(=O)CC2(CCN([C@H]3CC[C@@H](c4cccc(C(F)(F)F)n4)CC3)C2)C1 [Compound 62A, 6-((1s,4s)-4-(6-(trifluoromethyl)pyridin-2-yl)cyclohexyl)-2-thia-6-azaspiro[3.4]octane 2,2-dioxide]
Ki [1]: 23 nM
EC50 [2]: 45 nM

CC(C)n1nc(-c2ccc(C(F)(F)F)cc2)nc1[C@@H]1CC[C@H](N2CCC3(C2)CS(=O)(=O)C3)C1 (single isomer, unassigned) [53C*]
Ki [1]: 10 nM
EC50 [2]: 1.1 nM

CC(C)c1nc(C(F)(F)F)ccc1[C@H]1CC[C@@H](N2CCC3(C2)CS(=O)(=O)C3)CC1 [Compound 65B, 6-((1s,4s)-4-(2-isopropyl-6-(trifluoromethyl)pyridin-3-yl)cyclohexyl)-2-thia-6-azaspiro[3.4]octane 2,2-dioxide]
Ki [1]: 8 nM
EC50 [2]: 2.8 nM

CC(C)[C@@H]1C[C@@H](N2CCC3(C2)CS(=O)(=O)C3)CCN1c1ccc(C(F)(F)F)nc1 (single isomer, unassigned) [82B*]
Ki [1]: 46 nM
EC50 [2]: 19 nM

O=S1(=O)CC2(CCN([C@H]3CC[C@@H](c4cnc(C(F)(F)F)nc4)CC3)C2)C1 [Compound 94B, 6-((1s,4s)-4-(2-(trifluoromethyl)pyrimidin-5-yl)cyclohexyl)-2-thia-6-azaspiro[3.4]octane 2,2-dioxide]
Ki [1]: 115 nM
EC50 [2]: 250 nM

O=S1(=O)CC[C@@]2(CCCN([C@H]3CC[C@H](c4cc(C(F)(F)F)nn4C4CC4)CC3)C2)C1 (single isomer, unassigned) [69B*]
Ki [1]: 35 nM
EC50 [2]: 23 nM

CC(C)n1nc(C(F)(F)F)cc1[C@H]1CCC[C@H](N2CCC3(C2)CS(=O)(=O)C3)C1 (single isomer, unassigned) [61D*]
Ki [1]: 344 nM
EC50 [2]: > 330 nM

O=S1(=O)CC2(CCN([C@@H]3CCCN(c4ccc(C(F)(F)F)nc4)C3)C2)C1 (single isomer, unassigned) [66A*]
Ki [1]: 1980 nM
EC50 [2]: > 330 nM

O=S1(=O)CC2(CCN([C@H]3CC[C@H](c4cncc(C(F)(F)F)c4)CC3)C2)C1 [Compound 63A, 6-((1r,4r)-4-(5-(trifluoromethyl)pyridin-3-yl)cyclohexyl)-2-thia-6-azaspiro[3.4]octane 2,2-dioxide]
Ki [1]: 75 nM
EC50 [2]: 12 nM

O=S1(=O)CC2(CCN([C@@H]3CCC[C@H](c4ccc(C(F)(F)F)nc4)C3)C2)C1 (single isomer, unassigned) [54A*]
Ki [1]: 21 nM
EC50 [2]: 61 nM

O=S1(=O)CC2(CCN([C@H]3CC[C@H](c4ccc(C(F)F)nc4)CC3)C2)C1 [Compound 67, 6-((1r,4r)-4-(6-(difluoromethyl)pyridin-3-yl)cyclohexyl)-2-thia-6-azaspiro[3.4]octane 2,2-dioxide]
Ki [1]: 180 nM
EC50 [2]: 30 nM

CC(C)n1nc(C(F)(F)F)cc1[C@H]1CC[C@H](N2CCC[C@@]3(CCS(=O)(=O)C3)C2)CC1 (single isomer, unassigned) [91B*]
Ki [1]: 310 nM
EC50 [2]: 60 nM

O=S1(=O)CCC2(CCN([C@H]3CC[C@@H](c4ccc(C(F)(F)F)cn4)CC3)C2)CC1 [84A*, 2-((1r,4r)-4-(5-(Trifluoromethyl)pyridin-2-yl)cyclohexyl)-8-thia-2-azaspiro[4.5]decane 8,8-dioxide]
Ki [1]: 310 nM
EC50 [2]: 100 nM

CC(C)n1nc(C(F)(F)F)cc1[C@@H]1CCC[C@@H](N2CCC3(C2)CS(=O)(=O)C3)C1 (single isomer, unassigned) [61A*]
Ki [1]: 80 nM
EC50 [2]: > 330 nM

O=S1(=O)CC2(CCN([C@H]3CCCN(c4ccc(C(F)(F)F)nc4)C3)C2)C1 (single isomer, unassigned) [66B*]
Ki [1]: 61 nM
EC50 [2]: 12 nM

CC(C)C1C[C@H](N2CCC3(C2)CS(=O)(=O)C3)CCN1c1ccc(C(F)(F)F)nc1 (stereo in doubt) [82A*, 6-((2R,4R)-2-Isopropyl-1-(6-(trifluoromethyl)pyridin-3-yl)piperidin-4-yl)-2-thia-6-azaspiro[3.4]octane 2,2-dioxide]
Ki [1]: 89 nM
EC50 [2]: 280 nM

O=S1(=O)CC2(CCN([C@H]3CC[C@H](c4cnc(C(F)(F)F)nc4)CC3)C2)C1 [Compound 94A, 6-((1r,4r)-4-(2-(Trifluoromethyl)pyrimidin-5-yl)cyclohexyl)-2-thia-6-azaspiro[3.4]octane 2,2-dioxide]
Ki [1]: 230 nM
EC50 [2]: 81 nM

CC(C)n1nc(C(F)(F)F)cc1[C@@H]1CCC[C@@H](N2CCC3(CC2)CS(=O)(=O)C3)C1 (single isomer, unassigned) [78A*]
Ki [1]: 71 nM
EC50 [2]: > 330 nM
